Some targets named below: AURKC (Homo sapiens, UniProt Q9UQB9); BMPR1A (Homo sapiens, UniProt P36894); CAMKK1 (Homo sapiens, UniProt Q8N5S9); CSNK1G3 (Homo sapiens, UniProt Q9Y6M4); DYRK1A (Homo sapiens, UniProt Q13627); EPHB3 (Homo sapiens, UniProt P54753); MAP4K2 (Homo sapiens, UniProt Q12851); MAPK9 (Homo sapiens, UniProt P45984); PRKCQ (Homo sapiens, UniProt Q04759); PTK6 (Homo sapiens, UniProt Q13882); ROS1 (Homo sapiens, UniProt P08922); SGK2 (Homo sapiens, UniProt Q9HBY8); SYK (Homo sapiens, UniProt P43405); TAOK3 (Homo sapiens, UniProt Q9H2K8); TESK1 (Homo sapiens, UniProt Q15569); TNK1 (Homo sapiens, UniProt Q13470); ULK2 (Homo sapiens, UniProt Q8IYT8); WNK3 (Homo sapiens, UniProt Q9BYP7).

Common to all, as to test: biochemical
Common to all, as to design: KINOMEscan competition binding, DNA-tagged kinase against immobilised ligand, qPCR read-out
Settings in all cases: read-out: Percent Control
(Quantitative PCR measures a nucleic acid by following its amplification.)

Another test concerns the target T1, MST4 (Homo sapiens, UniProt Q9P289).
T1 construct: gene STK26

The target of test [1] is T2, RSK2(Kin.Dom.1-N-terminal) (Homo sapiens, UniProt P51812).
T2 construct: gene RPS6KA3; Kin.Dom.1 N-terminal

Molecules are shown by their SMILES.

The source of these data is article PMC10507085, “Pharmacological inhibition of TBK1/IKKε blunts immunopathology in a murine model of SARS-CoV-2 infection” (Nature Communications, 2023).

Chain of AURKC (Q9UQB9 whole entry): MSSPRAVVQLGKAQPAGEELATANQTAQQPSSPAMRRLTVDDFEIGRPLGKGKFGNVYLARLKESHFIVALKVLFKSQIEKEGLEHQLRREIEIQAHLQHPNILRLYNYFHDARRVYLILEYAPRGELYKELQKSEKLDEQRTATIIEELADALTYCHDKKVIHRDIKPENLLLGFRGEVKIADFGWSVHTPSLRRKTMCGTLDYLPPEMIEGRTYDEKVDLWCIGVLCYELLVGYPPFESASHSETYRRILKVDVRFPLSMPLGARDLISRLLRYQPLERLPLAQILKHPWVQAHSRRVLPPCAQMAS
Chain of CSNK1G3 (Q9Y6M4 whole entry): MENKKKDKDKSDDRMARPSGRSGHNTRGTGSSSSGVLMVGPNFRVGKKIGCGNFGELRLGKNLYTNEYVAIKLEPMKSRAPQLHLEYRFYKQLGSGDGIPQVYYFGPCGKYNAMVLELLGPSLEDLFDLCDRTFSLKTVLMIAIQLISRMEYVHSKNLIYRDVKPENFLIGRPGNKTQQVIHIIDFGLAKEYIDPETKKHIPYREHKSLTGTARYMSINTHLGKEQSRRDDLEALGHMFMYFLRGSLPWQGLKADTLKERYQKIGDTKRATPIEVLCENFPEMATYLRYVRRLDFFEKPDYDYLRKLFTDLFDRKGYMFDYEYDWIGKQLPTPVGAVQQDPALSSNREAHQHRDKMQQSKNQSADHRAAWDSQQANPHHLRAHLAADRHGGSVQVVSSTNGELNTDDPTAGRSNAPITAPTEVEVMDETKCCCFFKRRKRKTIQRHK
Chain of WNK3 (Q9BYP7 whole entry): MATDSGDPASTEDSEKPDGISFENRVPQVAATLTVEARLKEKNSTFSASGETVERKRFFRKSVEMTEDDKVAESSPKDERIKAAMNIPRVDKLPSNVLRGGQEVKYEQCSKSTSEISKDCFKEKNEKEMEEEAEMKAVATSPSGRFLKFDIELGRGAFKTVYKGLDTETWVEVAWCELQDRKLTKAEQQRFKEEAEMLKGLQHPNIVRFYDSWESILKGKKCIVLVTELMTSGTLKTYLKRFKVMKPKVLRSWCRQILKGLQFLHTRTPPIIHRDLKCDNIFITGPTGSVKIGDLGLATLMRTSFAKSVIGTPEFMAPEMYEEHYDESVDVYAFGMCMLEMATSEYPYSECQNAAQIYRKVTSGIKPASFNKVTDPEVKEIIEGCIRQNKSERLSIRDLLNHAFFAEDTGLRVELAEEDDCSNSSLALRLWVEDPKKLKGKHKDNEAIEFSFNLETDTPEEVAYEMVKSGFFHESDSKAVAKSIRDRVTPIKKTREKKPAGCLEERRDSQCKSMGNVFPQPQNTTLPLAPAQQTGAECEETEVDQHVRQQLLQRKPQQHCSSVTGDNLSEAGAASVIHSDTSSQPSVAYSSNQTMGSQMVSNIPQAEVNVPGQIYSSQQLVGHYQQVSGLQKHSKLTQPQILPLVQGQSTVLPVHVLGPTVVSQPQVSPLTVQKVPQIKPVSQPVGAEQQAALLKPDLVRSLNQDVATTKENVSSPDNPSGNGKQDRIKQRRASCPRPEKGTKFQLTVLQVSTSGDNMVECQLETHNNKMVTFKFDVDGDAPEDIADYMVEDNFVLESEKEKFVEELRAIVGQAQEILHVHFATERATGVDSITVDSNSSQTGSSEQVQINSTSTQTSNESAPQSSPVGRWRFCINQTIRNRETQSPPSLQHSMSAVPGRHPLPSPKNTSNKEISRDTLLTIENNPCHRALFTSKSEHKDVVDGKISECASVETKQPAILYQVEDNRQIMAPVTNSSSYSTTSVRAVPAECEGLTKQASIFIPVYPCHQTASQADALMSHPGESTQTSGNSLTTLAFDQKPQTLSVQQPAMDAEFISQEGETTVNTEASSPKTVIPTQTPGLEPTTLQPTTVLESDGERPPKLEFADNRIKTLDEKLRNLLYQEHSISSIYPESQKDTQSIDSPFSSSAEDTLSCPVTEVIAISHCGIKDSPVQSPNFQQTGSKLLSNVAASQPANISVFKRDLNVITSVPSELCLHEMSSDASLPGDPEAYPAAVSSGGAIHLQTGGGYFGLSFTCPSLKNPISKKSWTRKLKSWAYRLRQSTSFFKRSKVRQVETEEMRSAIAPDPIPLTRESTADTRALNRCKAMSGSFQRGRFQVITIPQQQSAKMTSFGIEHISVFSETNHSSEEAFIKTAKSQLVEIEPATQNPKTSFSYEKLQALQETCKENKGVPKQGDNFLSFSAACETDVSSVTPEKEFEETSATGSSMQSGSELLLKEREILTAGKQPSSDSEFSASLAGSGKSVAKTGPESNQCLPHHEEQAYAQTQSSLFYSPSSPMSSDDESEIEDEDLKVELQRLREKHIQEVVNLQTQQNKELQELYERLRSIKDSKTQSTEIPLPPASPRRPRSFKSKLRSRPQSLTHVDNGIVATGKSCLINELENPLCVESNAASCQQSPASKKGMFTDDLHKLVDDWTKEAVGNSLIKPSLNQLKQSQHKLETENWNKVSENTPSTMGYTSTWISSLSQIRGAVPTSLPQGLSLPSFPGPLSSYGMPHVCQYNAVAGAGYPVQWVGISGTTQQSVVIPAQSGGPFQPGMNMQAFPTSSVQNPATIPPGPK
Chain of MAP4K2 (Q12851 whole entry): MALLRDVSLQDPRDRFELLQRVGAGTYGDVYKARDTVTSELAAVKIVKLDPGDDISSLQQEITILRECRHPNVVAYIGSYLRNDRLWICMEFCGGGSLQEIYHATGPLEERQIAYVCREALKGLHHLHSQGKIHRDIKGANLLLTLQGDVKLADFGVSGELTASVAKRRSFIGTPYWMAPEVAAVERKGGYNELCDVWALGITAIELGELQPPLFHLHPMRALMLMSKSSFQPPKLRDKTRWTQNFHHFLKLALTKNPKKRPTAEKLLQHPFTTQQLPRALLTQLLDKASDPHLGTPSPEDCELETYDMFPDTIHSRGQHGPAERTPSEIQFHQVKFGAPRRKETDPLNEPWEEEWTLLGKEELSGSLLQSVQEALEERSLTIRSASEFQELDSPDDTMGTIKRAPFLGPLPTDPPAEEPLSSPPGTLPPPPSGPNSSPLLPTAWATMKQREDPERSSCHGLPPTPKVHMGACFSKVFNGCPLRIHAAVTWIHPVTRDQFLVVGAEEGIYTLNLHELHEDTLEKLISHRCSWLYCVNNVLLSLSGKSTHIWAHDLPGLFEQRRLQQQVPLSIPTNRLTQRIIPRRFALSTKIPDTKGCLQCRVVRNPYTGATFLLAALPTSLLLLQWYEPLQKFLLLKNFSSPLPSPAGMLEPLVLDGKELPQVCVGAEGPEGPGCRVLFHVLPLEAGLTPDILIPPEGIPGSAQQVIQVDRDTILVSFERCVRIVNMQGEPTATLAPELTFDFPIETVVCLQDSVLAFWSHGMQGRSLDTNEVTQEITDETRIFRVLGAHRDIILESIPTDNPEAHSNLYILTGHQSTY
Chain of SGK2 (Q9HBY8 whole entry): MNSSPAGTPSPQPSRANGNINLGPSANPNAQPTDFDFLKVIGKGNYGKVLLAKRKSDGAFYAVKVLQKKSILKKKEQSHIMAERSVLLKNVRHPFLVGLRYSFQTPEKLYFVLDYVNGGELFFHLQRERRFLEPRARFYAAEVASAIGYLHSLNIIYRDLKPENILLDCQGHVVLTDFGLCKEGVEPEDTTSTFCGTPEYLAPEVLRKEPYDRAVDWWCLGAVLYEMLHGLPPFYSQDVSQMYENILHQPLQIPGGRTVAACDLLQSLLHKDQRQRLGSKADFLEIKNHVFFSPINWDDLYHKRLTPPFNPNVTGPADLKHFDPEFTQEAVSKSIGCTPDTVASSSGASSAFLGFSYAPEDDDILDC
Chain of ULK2 (Q8IYT8 whole entry): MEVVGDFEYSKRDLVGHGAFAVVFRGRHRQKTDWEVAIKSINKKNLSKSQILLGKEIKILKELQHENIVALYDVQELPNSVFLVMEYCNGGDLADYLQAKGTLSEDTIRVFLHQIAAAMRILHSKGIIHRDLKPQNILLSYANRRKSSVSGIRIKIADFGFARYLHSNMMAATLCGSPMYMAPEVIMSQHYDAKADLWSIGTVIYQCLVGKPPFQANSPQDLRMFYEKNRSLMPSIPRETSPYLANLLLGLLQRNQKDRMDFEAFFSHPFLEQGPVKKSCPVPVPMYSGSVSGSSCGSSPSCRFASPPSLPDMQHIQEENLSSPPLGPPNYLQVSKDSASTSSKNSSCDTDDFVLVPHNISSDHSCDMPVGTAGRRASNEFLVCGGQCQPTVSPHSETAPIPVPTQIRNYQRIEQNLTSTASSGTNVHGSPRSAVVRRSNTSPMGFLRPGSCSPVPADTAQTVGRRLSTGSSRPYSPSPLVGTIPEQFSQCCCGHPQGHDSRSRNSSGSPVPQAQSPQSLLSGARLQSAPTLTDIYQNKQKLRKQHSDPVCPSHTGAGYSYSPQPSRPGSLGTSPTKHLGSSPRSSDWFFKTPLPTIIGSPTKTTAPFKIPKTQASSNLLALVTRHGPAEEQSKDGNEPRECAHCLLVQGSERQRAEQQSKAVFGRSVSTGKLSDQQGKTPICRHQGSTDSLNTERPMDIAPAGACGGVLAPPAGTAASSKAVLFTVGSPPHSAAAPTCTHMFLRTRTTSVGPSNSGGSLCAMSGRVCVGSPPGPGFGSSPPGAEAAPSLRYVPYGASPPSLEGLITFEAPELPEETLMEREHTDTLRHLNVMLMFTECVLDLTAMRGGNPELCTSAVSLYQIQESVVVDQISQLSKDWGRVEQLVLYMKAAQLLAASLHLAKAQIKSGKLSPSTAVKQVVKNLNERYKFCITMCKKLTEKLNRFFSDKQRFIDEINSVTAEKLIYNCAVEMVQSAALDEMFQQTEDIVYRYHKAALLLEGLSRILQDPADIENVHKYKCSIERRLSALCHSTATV

`Oc1ccc(C2=Cc3ccc(O)cc3OC2)cc1` [compound 1, idronoxil]: the remaining binding at 10 µM on AURKC worked out at 74%; at BMPR1A it was 89%; on CAMKK1 it was 78%; on CSNK1G3 it was 100%; on DYRK1A it was 34%; at EPHB3, 95%. For the same compound, the remaining binding at 10 µM was 26% on MAP4K2; 93% at MAPK9; 90% at MST4; 73% on PRKCQ; 100% on PTK6; 73% on ROS1. Moreover, the remaining binding at 10 µM in test [1] is 57%; at SGK2, 95%; on SYK it was 62%; on TAOK3, 53%; on TESK1 it was 86%; on TNK1 it was 76%. Further, the remaining binding at 10 µM on ULK2 was 100%; on WNK3, 80%.
